Data: patent publication US20120107861A1, “METHOD OF DETERMINING RISK OF ARRHYTHMIA” (priority 2010, published 2012)
Where two headings read alike, the source gives them in different places.

Tests used:
[1] = maximum therapeutic plasma concentration, cited from earlier work
[2] = system: human iPSC-derived cardiomyocytes (iCells); conditions: for IB20: lowest concentration producing IBR ≥0.2 (≥20% irregular beats over one minute); for amplitude of impedance: amplitude of each beat
Description: Cell Culture. hiPSC-derived cardiomyocytes (iCells) from Cellular Dynamics International (CDT) were thawed in Plating Media (CDI and plated as single cells onto 0.1% Gelatin (Sigma)-coated, 6-well tissue-culture plates (Corning) at a density of 2.2−2.7×10^6 cells per well. Cells were cultured for 3-5 d at 37° C., 7% CO2 prior to re-plating onto xCELLigence® 96-well cardio e-plates (ACEA/Roche Applied Sciences) or microelectrode arrays (MEAs, Multichannel Systems). The media was changed every 2 d after plating using Maintenance Media (CDI), pre-warmed to 37° C. to minimize the temperature shock on cells.
xCELLigence® cardio e-plates and MEA Re-plating. iCells cultured in 6-well plates were harvested by twice washing in dPBS (GIBCO) then lifted with 0.5% Trypsin-EDTA (GIBCO), incubated at 37° C., 7% CO2. Trypsin was quenched with Maintenance Media and cells were collectively centrifuged at 69 g for 5 minutes and resuspended in Maintenance Media to yield the target density. For cardio e-plate reseeding, cells were plated at a target density of 5×10^4 per well, estimating 80% seeding efficiency. Cardio e-plates were coated with 0.1% Gelatin for 3 h at 37° C. Background impedance measurements for cardio e-plates were made with the final volume of media equilibrated to 37° C. but without cells, immediately prior to reseeding the cells. The cells were monitored every 1 h by a 20 s sweep duration by the xCELLigence® RTCA cardio system at its maximum sampling rate (77 Hz) prior to initiating experimentation.
xCELLigence® and MEA Experimentation. Compound stocks were prepared in DMSO or dH2O at 1000 fold the highest tested concentration. For xCELLigence® experimentation, compound stocks were serially diluted in Maintenance Media in a separate 96-well tissue culture plate (Corning) at twice the target concentration. The dilution plate was incubated and equilibrated to 37° C. prior to cell exposure. […] All compounds were tested as n≧3 on multiple cardio e-plates. The xCELLigence® monitored changes to the beating for periodic 20 s sweep durations at 77 Hz.
Data Analysis. Data were first analyzed by the built-in analysis modules of xCELLigence® and MEAs systems, initial results were then exported into in-house developed Microsoft Excel templates for further semi-auto analysis. […] To calculate the “Predicted Proarrhythmic Score” (PPS), we first determined a “Irregular Beat Ratio” (IBR). The IBR was defined as the ratio of arrhythmic beat counts to the total number of beats over one minute. IBR values for each concentration at each selected time-point was averaged from 3 to 5 e-plates. The lowest concentration of drug, that generated a IBR value ≧0.2 was determined and termed “IB20.” Finally, the maximal therapeutic plasma concentration (Cmax) was divided by the IB20 to arrive at the PPS. A PPS >100 is a level of concern for drug-induced arrhythmia. […]

[3] = system: QT interval; conditions: cited from earlier work
[4] = system: TdP; conditions: clinical; cited from earlier work
[5] = system: human iPSC-derived cardiomyocytes (iCells); test: Multi-electrode array (MEA) field potential recording of iPSC-derived cardiomyocytes; format: cell-based; conditions: iPSC-CMs
Description: MEAs were prepared according to manufacturer guidelines. Briefly, microelectrodes in 6-well MEA dishes were coated with 2 μL Fibronectin (Sigma) diluted 1:20 and incubated at 37° C. for 3 h. Cells were reseeded at the target density of 3×10^4 cells in a 2 μL delivery to microelectrodes and incubated at 37° C., 7% CO2 for 3 h prior to filling each well with Maintenance Media. The media of cardio e-plates and MEAs were changed every 2 d thereafter, using Maintenance Media warmed to 37° C. Cells were cultured for 3-7 d prior to conducting an experiment on cardio e-plates or MEAs.
The wells of the MEAs had half the volume in each well replaced with fresh warm Maintenance Media, immediately prior to experimentation so as to be consistent with the media replacement for xCELLigence® experimentation. MEAs were allowed a 15 min equilibration period within the MEA recorder system (Multichannel Systems), prior to compound exposure. The temperature was maintained at 37° C. and a constant air flow of 95% O2, 5% CO2, was perfused over the MEAs. Compound additions were made in serially increasing additions, recording for 15 min at each concentration. All compounds were tested as n≧4 wells.

[6] = target: hERG channel (Homo sapiens, UniProt Q12809); conditions: cited from earlier work
[7] = Table I, Cmax/IB20, cut-off >100 as level of concern

Sequence of hERG channel (Q12809 whole entry): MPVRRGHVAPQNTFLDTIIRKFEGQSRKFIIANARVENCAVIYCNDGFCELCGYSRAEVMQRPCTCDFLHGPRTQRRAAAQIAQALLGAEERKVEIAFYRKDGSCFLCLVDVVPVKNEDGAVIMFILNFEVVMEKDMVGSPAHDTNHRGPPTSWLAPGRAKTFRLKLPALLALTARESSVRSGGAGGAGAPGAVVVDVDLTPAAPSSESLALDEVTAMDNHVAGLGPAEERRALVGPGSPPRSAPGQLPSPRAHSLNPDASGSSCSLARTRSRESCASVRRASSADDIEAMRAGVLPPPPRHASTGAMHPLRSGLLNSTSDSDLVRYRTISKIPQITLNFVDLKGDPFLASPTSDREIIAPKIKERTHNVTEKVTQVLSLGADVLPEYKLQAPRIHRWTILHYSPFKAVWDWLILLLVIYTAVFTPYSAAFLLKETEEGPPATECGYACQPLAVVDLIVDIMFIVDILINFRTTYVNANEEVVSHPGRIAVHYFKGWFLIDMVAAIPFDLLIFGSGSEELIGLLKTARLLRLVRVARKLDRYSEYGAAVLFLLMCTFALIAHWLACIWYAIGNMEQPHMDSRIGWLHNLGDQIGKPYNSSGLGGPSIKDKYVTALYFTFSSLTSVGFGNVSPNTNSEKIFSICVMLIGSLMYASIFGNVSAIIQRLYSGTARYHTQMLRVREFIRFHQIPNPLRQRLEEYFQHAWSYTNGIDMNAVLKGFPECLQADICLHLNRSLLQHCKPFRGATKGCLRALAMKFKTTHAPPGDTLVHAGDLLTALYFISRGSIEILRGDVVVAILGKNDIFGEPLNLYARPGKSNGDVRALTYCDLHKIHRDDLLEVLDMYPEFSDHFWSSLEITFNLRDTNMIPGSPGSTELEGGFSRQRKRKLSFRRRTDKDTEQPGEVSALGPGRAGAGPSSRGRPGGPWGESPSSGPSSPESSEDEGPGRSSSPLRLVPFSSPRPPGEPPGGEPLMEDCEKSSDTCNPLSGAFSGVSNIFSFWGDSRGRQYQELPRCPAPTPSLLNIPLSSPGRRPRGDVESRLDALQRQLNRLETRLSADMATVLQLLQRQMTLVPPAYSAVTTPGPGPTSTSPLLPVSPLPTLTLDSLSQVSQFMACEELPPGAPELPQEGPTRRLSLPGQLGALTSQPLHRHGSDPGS

CCN1C[C@]2(COC)[C@H](O)C[C@H](OC)[C@@]34[C@@H]5C[C@@]6(O)[C@H](OC(=O)c7ccccc7)[C@@H]5[C@@](OC(C)=O)([C@@H]([C@H](OC)[C@H]23)[C@@H]14)[C@@H](O)[C@@H]6OC [Aconitine]
Cmax ([1]; Table I): 77 nM | Cmax ([1]; Table II): 77 nM | concentration showing arrhythmia relative to the efficacious concentration [2]: arrhythmia at concentrations less than the efficacious concentration | PPS [2, 7]: 2567 | IB20 ([2]; Table I): 0.03 µM | IB20 ([2]; Table II): 0.03 µM | PPS ([2]; human): 0.4

COc1cc2nc(N(C)CCCNC(=O)C3CCCO3)nc(N)c2cc1OC (centres unmarked) [Alfuzosin]
QT prolongation ([3]; in patients / in vivo): induce QT prolongation | TdP liability [4]: free of TdP | Cmax ([1]; Table I): 56 nM | Cmax ([1]; Table II): 56 nM | effect at concentrations substantially higher than employed in vivo [2]: beat rate reduction and appearance of arrhythmic beats

CCCCc1oc2ccccc2c1C(=O)c1cc(I)c(OCCN(CC)CC)c(I)c1 [Amiodarone]
TdP liability [4]: very low risk of TdP

CC1(C)S[C@@H]2[C@H](NC(=O)[C@H](N)c3ccc(O)cc3)C(=O)N2[C@H]1C(=O)O [Amoxicillin]
QT prolongation ([3]; in patients / in vivo): devoid of QT prolongation | TdP liability [4]: devoid of QT prolongation and TdP liability | Cmax ([1]; Table I): 17000 nM | Cmax ([1]; Table II): 17000 nM | IB20 ([2]; Table I): >1,000 μM | IB20 ([2]; Table II): >1,000,000 nM

CC(=O)Oc1ccccc1C(=O)O [Aspirin]
QT prolongation ([3]; in patients / in vivo): devoid of QT prolongation | TdP liability [4]: devoid of QT prolongation and TdP liability | Cmax ([1]; Table I): 10000 nM | Cmax ([1]; Table II): 10000 nM

COc1ccc(CCN2CCC(Nc3nc4ccccc4n3Cc3ccc(F)cc3)CC2)cc1 [Astemizole]
Cmax ([1]; Table I): 8 nM | Cmax ([1]; Table II): 8 nM

C[C@H](CS)C(=O)N1CCC[C@H]1C(=O)O [Captopril]
QT prolongation ([3]; human, in vivo): devoid of QT prolongation | Cmax ([1]; Table I): 2470 nM | Cmax ([1]; Table II): 2470 nM | PPS [2, 7]: <25

COc1cc(N)c(Cl)cc1C(=O)NC1CCN(CCCOc2ccc(F)cc2)CC1OC (centres unmarked) [Cisapride]
Cmax ([1]; Table I): 129 nM | Cmax ([1]; Table II): 129 nM | alterations in beat patterns / arrhythmic beats [2]: Irregular beating patterns were observed

CN(CCOc1ccc(NS(C)(=O)=O)cc1)CCc1ccc(NS(C)(=O)=O)cc1 [Dofetilide]
Cmax ([1]; Table I): 6 nM | Cmax ([1]; Table II): 6 nM | PPS [2, 7]: 2000 | PPS ([2]; human): 0.5

Cc1cccc(CCN2CCC(C(=O)c3ccc(NS(C)(=O)=O)cc3)CC2)n1 [E-4031]
beat rate ([2]; iPSC-CMs, impedance): dose-dependent reduction in beat rate

CC[C@H]1OC(=O)[C@H](C)[C@@H](O[C@H]2C[C@@](C)(OC)[C@@H](O)[C@H](C)O2)[C@H](C)[C@@H](O[C@@H]2O[C@H](C)C[C@H](N(C)C)[C@H]2O)[C@](C)(O)C[C@@H](C)C(=O)[C@H](C)[C@@H](O)[C@]1(C)O [Erythromycin]
Cmax ([1]; Table I): 34100 nM | Cmax ([1]; Table II): 34100 nM | alterations in beat patterns / arrhythmic beats [2]: Irregular beating patterns were observed

CNCCC(Oc1ccc(C(F)(F)F)cc1)c1ccccc1 (centres unmarked) [Fluoxetine]
TdP liability [4]: very low risk of TdP | Cmax ([1]; Table I): 485 nM | Cmax ([1]; Table II): 485 nM

CC(C)NCC(O)c1ccc(O)c(O)c1 (centres unmarked) [Isoproterenol]
beat rate in MEA [5]: increased | amplitude of impedance ([2]; iPSC-CMs): increased | beat rate ([2]; iPSC-CMs, impedance): increased

COc1c(N2C[C@@H]3CCCN[C@@H]3C2)c(F)cc2c(=O)c(C(=O)O)cn(C3CC3)c12 [Moxifloxacin]
QT prolongation ([3]; human, in vivo): induce QT prolongation | Cmax ([1]; Table I): 10300 nM | Cmax ([1]; Table II): 10300 nM | alterations in beat patterns / arrhythmic beats [2]: not torsadogenic | PPS [2, 7]: <103 | PPS ([2]; human): >10 | hERG inhibition [6]: inhibit hERG

C[C@@H]1O[C@@H](O[C@H]2C[C@@H](O)[C@]3(CO)[C@H]4[C@H](O)C[C@]5(C)[C@@H](C6=CC(=O)OC6)CC[C@]5(O)[C@@H]4CC[C@]3(O)C2)[C@H](O)[C@H](O)[C@H]1O [Ouabain]
amplitude in MEA ([5]; for nifedipine Ca2+-peak amplitude): increased | Cmax ([1]; Table I): 170 nM | Cmax ([1]; Table II): 170 nM | PPS [2, 7]: 5667 | IB20 ([2]; Table I): 0.03 µM | IB20 ([2]; Table II): 0.03 µM | PPS ([2]; human): 0.2 | alterations in beat patterns / arrhythmic beats ([2]; human iPSC-CMs): Irregular beating patterns were observed | amplitude of impedance ([2]; iPSC-CMs): increased

C=C[C@H]1C[N@@]2CC[C@H]1C[C@@H]2[C@@H](O)c1ccnc2ccc(OC)cc12 [Quinidine]
Cmax ([1]; Table I): 21600 nM | Cmax ([1]; Table II): 21600 nM | alterations in beat patterns / arrhythmic beats [2]: Irregular beating patterns were observed | PPS [2, 7]: 2158 | PPS ([2]; human): 0.5

COc1ccccc1OCC(O)CN1CCN(CC(=O)Nc2c(C)cccc2C)CC1 (centres unmarked) [Ranolazine]
QT prolongation ([3]; in patients / in vivo): induce QT prolongation | TdP liability [4]: free of TdP | Cmax ([1]; Table I): 6010 nM | Cmax ([1]; Table II): 6010 nM | alterations in beat patterns / arrhythmic beats [2]: not torsadogenic | hERG inhibition [6]: inhibit hERG

CS(=O)(=O)c1ccc(C2=C(c3ccccc3)C(=O)OC2)cc1 [Rofecoxib]
QT prolongation ([3]; in patients / in vivo): devoid of QT prolongation | TdP liability [4]: devoid of QT prolongation and TdP liability | Cmax ([1]; Table I): 1020 nM | Cmax ([1]; Table II): 1020 nM

CC(C)NCC(O)c1ccc(NS(C)(=O)=O)cc1 (centres unmarked) [Sotalol]
Cmax ([1]; Table I): 14700 nM | Cmax ([1]; Table II): 14700 nM | alterations in beat patterns / arrhythmic beats [2]: Irregular beating patterns were observed

CC(C)(C)c1ccc(C(O)CCCN2CCC(C(O)(c3ccccc3)c3ccccc3)CC2)cc1 (centres unmarked) [Terfenadine]
Cmax ([1]; Table I): 300 nM | Cmax ([1]; Table II): 300 nM

NC1=N[C@H](O)[C@H]2[C@H]3O[C@]4(O)O[C@@H]([C@@H](O)[C@@]2(N1)[C@@H]4O)[C@]3(O)CO [Tetrodotoxin]
beat rate [2]: reduction in beat rate

CCN(c1ccccc1)c1cc(=NC)n(C)c(C)n1.Cl [ZD7288]
beat rate ([2]; iPSC-CMs, impedance): reduction in beat rate

Cc1ccc2c(c1)C(=O)C1(O)CCN(c3ccccc3)C1=N2 (centres unmarked) [blebbistatin]
electrophysiology of the cardiomyocytes detected by MEA [5]: remained unchanged | cardiomyocyte beating using impedance ([2]; iPSC-CMs, myosin II inhibition): no cardiomyocyte beating was observed
